Measurements taken from patent US8288367B2, “Substituted estratriene derivatives as 17BETA HSD inhibitors” (Solvay Pharmaceuticals GmBH, priority 2006, dated 2012).

Key:
[1] = target: T1, recombinant human 17β-HSD2 (Homo sapiens, UniProt P37059); experiment: Recombinant 17β-HSD2 assay (HPLC, 3H-estradiol conversion); assay type: biochemical; settings: 50 nM estradiol, 1 mM β-NAD, read-out: Inhibition of rec. 17β-HSD2; for inhibition at 0.1 µM: 100 nM compound; for inhibition at 1 µM: 1 μm compound
T1 construct: made in house; host or cells: Sf9 insect cells (baculovirus, Bac to Bac Expression System)
T1 sequence (P37059 1-387): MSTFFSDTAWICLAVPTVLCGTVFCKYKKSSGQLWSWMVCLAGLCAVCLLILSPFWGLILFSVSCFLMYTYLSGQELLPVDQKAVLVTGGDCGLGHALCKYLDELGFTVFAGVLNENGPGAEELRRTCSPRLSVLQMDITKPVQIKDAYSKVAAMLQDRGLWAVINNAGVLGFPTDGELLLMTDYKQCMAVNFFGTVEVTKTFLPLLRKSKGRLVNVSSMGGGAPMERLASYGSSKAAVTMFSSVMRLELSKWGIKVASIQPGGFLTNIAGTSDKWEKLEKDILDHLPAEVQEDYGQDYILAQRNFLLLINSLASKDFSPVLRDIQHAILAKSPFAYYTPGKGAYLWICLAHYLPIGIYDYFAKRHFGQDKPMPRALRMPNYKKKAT
Method: 17β-HSD1 or 17β-HSD2 purification: Recombinant 17β-HSD1 and 17β-HSD2 baculoviruses were generated by the “Bac to Bac Expression System” (Invitrogen). Recombinant 17β-HSD1 or 17β-HSD2 bacmids were transfected to Sf9 insect cells using “Cellfectin Reagent” (Invitrogen). 60 h later cells were harvested; the fractions including 17β-HSD1 or 17β-HSD2 were isolated as described by Puranen et al. (1994). Aliquots were stored frozen until determination of enzymatic activity. Recombinant 17β-HSD2 assay: Recombinant 17β-HSD2 assay was performed as described for 17β-HSD1 but with following modifications: 6 μg/ml of recombinant protein homogenate, 50 nM Estradiol (Sigma, E8875) as a substrate, 800 000 cpm/ml ^3H-estradiol (PerkinElmer, NET317) as a tracer substrate and 1 mM β-NAD (Sigma N7004) as a co-factor were used. Total radioactivity for estrone and estradiol were determined in each sample and percent inhibition of estrone conversion by the respective inhibitor was calculated. For the calculation of % inhibition the following formula was used: [formula] Percent inhibition was calculated as follows: % inhibition=100−% conversion

[2] = target: T2, recombinant human 17β-HSD1 (Homo sapiens, UniProt P14061); experiment: Recombinant 17β-HSD1 assay (HPLC, 3H-estrone conversion); assay type: biochemical; settings: 30 nM estrone, 1 mM NADPH, 30 min RT, read-out: Inhibition of rec. 17β-HSD1; for inhibition at 0.1 µM: 100 nM compound; for inhibition at 1 µM: 0.5 h, 1 μm compound
T2 construct: made in house; host or cells: Sf9 insect cells (baculovirus, Bac to Bac Expression System)
T2 sequence (P14061 1-328): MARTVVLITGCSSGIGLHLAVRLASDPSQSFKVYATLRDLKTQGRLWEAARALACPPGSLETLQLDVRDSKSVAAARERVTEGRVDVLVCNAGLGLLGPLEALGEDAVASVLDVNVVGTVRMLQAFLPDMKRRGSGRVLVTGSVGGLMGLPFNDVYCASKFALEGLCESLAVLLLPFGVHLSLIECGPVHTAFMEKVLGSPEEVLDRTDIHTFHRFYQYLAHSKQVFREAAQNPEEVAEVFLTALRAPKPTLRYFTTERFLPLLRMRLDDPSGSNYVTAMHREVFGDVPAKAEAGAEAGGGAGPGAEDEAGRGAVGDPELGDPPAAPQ
Method: 17β-HSD1 or 17β-HSD2 purification: Recombinant 17β-HSD1 and 17β-HSD2 baculoviruses were generated by the “Bac to Bac Expression System” (Invitrogen). Recombinant 17β-HSD1 or 17β-HSD2 bacmids were transfected to Sf9 insect cells using “Cellfectin Reagent” (Invitrogen). 60 h later cells were harvested; the fractions including 17β-HSD1 or 17β-HSD2 were isolated as described by Puranen et al. (1994). Aliquots were stored frozen until determination of enzymatic activity.
Recombinant 17β-HSD1 assay: Recombinant protein homogenate (0.1 μg/ml) was incubated in 20 mM KH2PO4 pH 7.4 reaction buffer, including protease inhibitors (Complete Protease Inhibitor Cocktail tablet, Roche Diagnostics, 1697498), with 30 nM estrone (Sigma, E9750) as substrate, 800 000 cpm/ml ^3H-estrone (PerkinElmer, NET319001MC) as a tracer substrate, and 1 mM NADPH (Sigma, N1630) as a co-factor for 30 min at RT, in the presence of potential inhibitors at concentrations of 1 μM or 0.1 μM. Inhibitor stock solutions were prepared in DMSO. The enzyme reaction was stopped by addition of trichloroacetic acid (1% final concentration). Samples were centrifuged in a microtiter plate at 4000 rpm for 10 min. Supernatants were applied to reverse phase HPLC on a Waters Symmetry C18 column, equipped with a Waters Sentry Guard column. Isocratic HPLC runs were performed at RT at a flow rate of 1 ml/min of acetonitrile:water 48:52 as running solvent. Radioactivity was monitored in the eluate by a Packard Flow Scintillation Analyzer. Total radioactivity for estrone and estradiol were determined in each sample and percent inhibition of estradiol conversion by the respective inhibitor was calculated
For the calculation of % inhibition the following formula was used:
[formula] Percent inhibition was calculated as follows: % inhibition=100−% conversion

Compound | inhibition at 0.1 µM [1] [%] | inhibition at 1 µM [1] [%] | inhibition at 0.1 µM [2] [%] | inhibition at 1 µM [2] [%]
C[C@]12CC[C@@H]3c4ccc(B(O)O)cc4CC[C@H]3[C@@H]1[C@H](CCC(=O)NC1CCCCC1)CC2=O [Compound 32, [15beta-[3-(cyclohexylamino)-3-oxopropyl]-17-oxoestra-1(10),2,4-trien-3-yl]boronic acid] | 1.1 | 3.5 | 77 | 91
C[C@]12CC[C@@H]3c4ccc(B(O)O)cc4CC[C@H]3[C@@H]1[C@H](CCC(=O)N1CCCCC1)CC2=O [Compound 35, [17-oxo-15beta-(3-oxo-3-piperidin-1-ylpropyl)estra-1(10),2,4-trien-3-yl]boronic acid] | 4 | 1.5 | 57 | 56
C[C@]12CC[C@@H]3c4ccc(B(O)O)cc4CC[C@H]3[C@@H]1[C@H](CCC(=O)NCc1cccnc1)CC2(F)F [Compound 62, [17,17-Difluoro-15beta-{3-oxo-3-[(pyridin-3-ylmethyl)amino]propyl}estra-1(10),2,4-trien-3-yl]boronic acid] | 6.2 | 8.3 | 36 | 56
Cc1cnc(NC(=O)CC[C@@H]2CC(=O)[C@@]3(C)CC[C@@H]4c5ccc(C(N)=O)cc5CC[C@H]4[C@H]23)s1 [Compound 3, 15β-{3-[(5-methyl-1,3-thiazol-2-yl)amino]-3-oxopropyl}-17-oxoestra-1(10),2,4-triene-3-carboxamide] | -1.8 | 8.6 | 20 | 74
C[C@]12CC[C@@H]3c4ccc(B(O)O)cc4CC[C@H]3[C@@H]1[C@@H](CCCC(=O)NCc1ccc3c(c1)OCO3)CC2=O [Compound 19, [15alpha-{4-[(1,3-benzodioxol-5-ylmethyl)amino]-4-oxobutyl}-17-oxoestra-1(10),2,4-trien-3-yl]boronic acid] | -2.4 | 0.1 | 19 | 43
C[C@]12CC[C@@H]3c4ccc(B(O)O)cc4CC[C@H]3[C@@H]1[C@H](CCC(=O)Nc1ccc3c(c1)OCO3)CC2(F)F [Compound 74, [15beta-[3-(1,3-benzodioxol-5-ylamino)-3-oxopropyl]-17,17-difluoroestra-1(10),2,4-trien-3-yl]boronic acid] | 4.9 | 5.5 | 55.6 | 71.4
C[C@]12CC[C@@H]3c4ccc(B(O)O)cc4CC[C@H]3[C@@H]1[C@H](CCC(=O)NCc1ccc(F)cc1F)CC2(F)F [Compound 65, [15beta-{3-[(2,4-difluorobenzyl)amino]-3-oxopropyl}-17,17-difluoroestra-1(10),2,4-trien-3-yl]boronic acid] | 5.8 | 9.8 | 32 | 63
C[C@]12CC[C@@H]3c4ccc(B(O)O)cc4CC[C@H]3[C@@H]1[C@H](CCC(=O)NC1CCCCC1)CC2(F)F [Compound 59, [15beta-[3-(cyclohexylamino)-3-oxopropyl]-17,17-difluoroestra-1(10),2,4-trien-3-yl]boronic acid] | 0.6 | 15.2 | 69 | 84
COc1ccc(CCN(C)C(=O)CCC[C@H]2CC(F)(F)[C@@]3(C)CC[C@@H]4c5ccc(B(O)O)cc5CC[C@H]4[C@H]23)cc1OC [Compound 51, [15alpha-(4-{[2-(3,4-dimethoxyphenyl)ethyl](methyl)amino}-4-oxobutyl)-17,17-difluoroestra-1(10),2,4-trien-3-yl]boronic acid] | 2.8 | 7.8 | 37 | 62
Cc1cnc(NC(=O)CC[C@@H]2CC(F)(F)[C@@]3(C)CC[C@@H]4c5ccc(B(O)O)cc5CC[C@H]4[C@H]23)s1 [Compound 58, [17,17-difluoro-15β-{3-[(5-methyl-1,3-thiazol-2-yl)amino]-3-oxopropyl}estra-1(10),2,4-trien-3-yl]boronic acid] | 6.8 | 11.6 | 23 | 55
C[C@]12CC[C@@H]3c4ccc(B(O)O)cc4CC[C@H]3[C@@H]1[C@@H](CCCC(=O)NCc1ccccc1)CC2(F)F [Compound 54, [15alpha-[4-(benzylamino)-4-oxobutyl]-17,17-difluoroestra-1(10),2,4-trien-3-yl]boronic acid] | 7.6 | 25.2 | 41 | 58
C[C@]12CC[C@@H]3c4ccc(B(O)O)cc4CC[C@H]3[C@@H]1[C@H](CCC(=O)N1CCOCC1)CC2=O [Compound 33, [15beta-(3-morpholin-4-yl-3-oxopropyl)-17-oxoestra-1(10),2,4-trien-3-yl]boronic acid] | -2.3 | -1.1 | 20 | 59
C[C@]12CC[C@@H]3c4ccc(B(O)O)cc4CC[C@H]3[C@@H]1[C@H](CCC(=O)NCc1ccc3c(c1)OCO3)CC2=O [Compound 34, [15beta-{3-[(1,3-benzodioxol-5-ylmethyl)amino]-3-oxopropyl}-17-oxoestra-1(10),2,4-trien-3-yl]boronic acid] | 3.2 | 0.4 | 47 | 65
C[C@]12CC[C@@H]3c4ccc(B(O)O)cc4CC[C@H]3[C@@H]1[C@@H](CCCC(=O)NCc1ccccc1)CC2=O [Compound 23, [15alpha-[4-(benzylamino)-4-oxobutyl]-17-oxoestra-1(10),2,4-trien-3-yl]boronic acid] | 1.8 | 0.4 | 76 | 54
Cc1cnc(NC(=O)CC[C@@H]2CC(=O)[C@@]3(C)CC[C@@H]4c5ccc(B(O)O)cc5CC[C@H]4[C@H]23)s1 [Compound 31, [15beta-{3-[(5-methyl-1,3-thiazol-2-yl)amino]-3-oxopropyl}-17-oxoestra-1(10),2,4-trien-3-yl]boronic acid] | 2.6 | 1.6 | 82 | 90
